Biological target: Human immunodeficiency virus type 1 reverse transcriptase (Human immunodeficiency virus 1, UniProt Q72547)
Test: Inhibitory activity against HIV-1 Reverse transcriptase (RT) was determined

Compound	IC50 [nM]
CCN1c2ccncc2N(C)C(=O)c2cccnc21	1600
CCN1c2cnccc2C(=O)N(C)c2cccnc21	6400
CCN1c2cnccc2N(C)C(=O)c2cccnc21	350
